Assay results: patent publication US20050038058A1, “Novel compounds and methods for therapy” (Institute of Organic Chemistry and Biochemistry, priority 2001, published 2005)
Values after ≈ are worked out from the molar mass of the structure shown. Like-named read-outs stand apart in the source and are kept apart here. Marks after values point to notes of the source that are not given here.

What was measured:
MSV [1] = experiment: MSV-induced transformation of murine embryo fibroblast C3H/3T3 cell cultures; type: cell-based; conditions: for EC50: Mus musculus
Description: The inhibitory effect of the test compounds on MSV-induced transformation of murine embryo fibroblast C3H/3T3 cell cultures was examined microscopically at day 6 post infection. MSV was added at 75 focus-forming units to the cell cultures. The detailed procedures for the antiretroviral evaluations has been described in detail before (Balzarini et al., AIDS 5:21-28, 1991; Balzarini et al., Antimicrob. Agents Chemother. 37:332-338, 1993; De Clercq et al., Proc. Soc. Exp. Biol. Med. 137:590-594, 1971).

MSV [2] = type: in vivo; conditions: for Number of Mice not Developing a Tumor (percent): intraperitoneal, 5 daily doses, newborn NMRI mice
HIV-1(IIIB) = experiment: HIV-1(IIIB)-induced cytopathicity in MT-4 cell cultures; type: cell-based; conditions: Table 2; for EC50: Human immunodeficiency virus 1, IIIB, MT4
Source text: Viruses. The origins of MSV, HIV type 1 (HIV-1) (strain IIIB and Ba-L), HIV-2 (strain ROD) and FIV (strain Petaluma) have been described previously (Balzarini et al., AIDS 5: 21-28, 1991; De Clercq et al., Proc. Soc. Exp. Biol. Med. 137:590-594, 1971; Egberink et al., Proc. Natl. Acad. Sci. 87:3087-3091, 1990; Hartmann et al., Antiviral Chem. Chemother. 5:13-19, 1994; Popovic et al., Science 224:497-500, 1984). HIV-1(IIIB) and HIV-2(ROD) stocks were obtained from supernatants of virus-infected MT-4 cell cultures. HIV-1BaL was expanded in human primary M/M, whose supernatants were collected, filtered and stored at −80° C. before use. Characteristics of viral stocks used for this study were 2.1×10^8 HIV-RNA genomes/ml (corresponding to 35 ng of p24 antigen) and 5,000 tissue culture infectious doses 50% per ml (TCID50/ml) as assessed by virus titration in other primary M/M cultures. The isolation and characterization of the clinical HIV-1 isolates L1S, L6S and L6S/PMEA has been reported (Thormar et al., Proc. Natl. Acad. Sci. USA 93:3283-3287, 1995; Van Laethem et al., AIDS 15:553-561, 2001). […] HIV-1/L6S/PMEA is the clinical isolate HIV-1/L6S that has been isolated after culturing the virus for 11 passages in the presence of increasing concentrations of PMEA (adefovir).
In vitro antiviral assays. The activity against HIV-1- and HIV-2-induced cytopathicity was examined in MT-4 cell cultures at day 5 post infection and based on the determination of cell viability by trypan blue dye staining or in CEM cell cultures at day 4 to 5 post infection and based on the microscopical examination of virus-induced giant cell formation. HIV-1 and HIV-2 were added at 100 CCID50 to the cell cultures.

FIV (strain Petaluma) = experiment: Anti-FIV assay, p24 antigen in CrFK cells; type: cell-based; conditions: Table 2; for EC50: Feline immunodeficiency virus, CRFK
Description: For the anti-FIV assays, 10^5 CrFK cells were seeded onto 24-well tissue culture plates. Cells were cultured with 2 ml of culture medium/well containing 2.5% of fetal calf serum in the presence of various drug concentrations. The assays were carried out in triplicate. After a 1-hr incubation period at 37° C., cells were infected with FIV. Virus was left in contact with the cultures for 1 day, after which the medium was removed and new medium containing the appropriate drug concentrations was added. After 6 days, the presence of FIV p24 antigen was examined by an antigen capture assay.

Toxicity in CrFK cells = type: cell-based, feline; conditions: cat, Table 2
[3] = MSV-induced C3H cell transformation, Table 2
[4] = 20 mg/kg, premature death not taken into account
[5] = 50 mg/kg, premature death not taken into account
[6] = MSV-induced C3H cell transformation, Table 2, read-out: EC50 MSV (C3H)

SMILES	EC50 MSV (C3H) (MSV [1]; [3])	Number of Long-Term Survivors (%) (>30 days) (MSV [2]; 2 mg/kg)	Number of Mice not Developing a Tumor (percent) (MSV [2]; 2 mg/kg)	Number of Long-Term Survivors (%) (>30 days) (MSV [2]; 8 mg/kg)	Number of Mice not Developing a Tumor (percent) (MSV [2]; 8 mg/kg)	Number of Mice not Developing a Tumor (percent) (MSV [2]; 20 mg/kg)	Number of Long-Term Survivors (%) (>30 days) (MSV [2]; [4])	Number of Mice not Developing a Tumor (percent) (MSV [2]; 50 mg/kg)	Number of Long-Term Survivors (%) (>30 days) (MSV [2]; [5])	EC50 HIV-1 (IIIB) (MT-4) (HIV-1(IIIB))	EC50 FIV (CrFK) (FIV (strain Petaluma))	CC50 (Toxicity in CrFK cells; CrFK cells)	EC50 (MSV [1]; [6])	EC50 (HIV-1(IIIB))	EC50 (FIV (strain Petaluma))	other results
C[C@H](Cn1cnc2c(N)ncnc21)OCP(=O)(O)O [(R)-PMPA, (R)-9-[(2-phosphonomethoxy)-propyl]adenine, reference compound]	1.4 ± 0.9 µg/mL (≈ 4.87 µM)	31%	0%	83%	65%	92%	100%	100%	100%	0.46 ± 0.006 µg/mL (≈ 1.6 µM)	0.13 µg/mL (≈ 0.453 µM)					
Nc1cc(OCCOCP(=O)(O)O)nc(N)n1 [Compound 1, 2,4-diamino-6-[2-(phosphonomethoxy)ethoxy]pyrimidine]		15%	5%	89%	44%	80%	100%	84%	100^b %			11 µg/mL (≈ 41.6 µM)	0.16 ± 0.04 µg/mL (≈ 0.606 µM)	0.34 ± 0.03 µg/mL (≈ 1.29 µM)	0.25 ± 0.01 µg/mL (≈ 0.946 µM)	EC50 (MSV [1]; C3H, read-out: EC50 against MSV-induced C3H cell transformation): 0.05 to 0.15 µg/mL (≈ 0.189 to 0.568 µM); Mice protected from tumor formation (MSV [2]; 50 and 20 mg/kg): At least 80%
Nc1cc(SCCOCP(=O)(O)O)nc(N)n1 [Compound 2, 2,4-diamino-6-{[2-(phosphonomethoxy)ethyl]-sulfanyl}pyrimidine]		0%	0%	20%	0%	0%	20%	0%	20%			42 µg/mL (≈ 150 µM)	1.7 ± 0.9 µg/mL (≈ 6.07 µM)	2.5 ± 0.3 µg/mL (≈ 8.92 µM)	0.97 ± 0.4 µg/mL (≈ 3.46 µM)	Prevention of tumor formation, in words (MSV [2]; all doses tested): unable to prevent tumor formation; Long-term survivors (MSV [2]; dose of 8-50 mg/kg): 20%; Delay of MSV-induced tumor formation, in words (MSV [2]; mouse, in vivo): only showed a pronounced delay in tumor formation at a dose of 50 mg/kg
C[C@H](COc1cc(N)nc(N)n1)OCP(=O)(O)O [Compound 11, 2,4-diamino-6-(R)-[2-(phosphonomethoxy)propoxy]pyrimidine]	0.05 ± 0.01 µg/mL (≈ 0.18 µM)	5%	0%	40%	15%	20%	40^c %			3.0 ± 0.4 µg/mL (≈ 10.8 µM)	0.66 ± 0.14 µg/mL (≈ 2.37 µM)					
Nc1ncnc2c1ncn2CCOCP(=O)(O)O [PMEA, 9-[(2-phosphono-methoxy)ethyl]adenine, reference compound]				77%	44%	89%	94%						0.62 ± 0.27 µg/mL (≈ 2.27 µM)	1.3 ± 1.1 µg/mL (≈ 4.76 µM)	0.46 ± 0.19 µg/mL (≈ 1.68 µM)	CC50 (Toxicity in CrFK cells): 18 µg/mL (≈ 65.9 µM); Number of Long-Term Survivors (%) (>30 days) (MSV [2]; 4 mg/kg): 35%; Number of Mice not Developing a Tumor (percent) (MSV [2]; 4 mg/kg): 5%; Number of Mice not Developing a Tumor (percent) (MSV [2]; 100 mg/kg): 100^d percent
